Measurements: publication PMC6868041, “Evans Blue Inhibits HBV Replication Through a Dual Antiviral Mechanism by Targeting Virus Binding and Capsid Assembly” (Frontiers in Microbiology, 2019)

Tests used:
BSA = target: T1, BSA (Bos taurus, UniProt P02769); test: biolayer interferometry (Octet RED); assay type: binding; settings: negative control protein, biotinylated BSA on sensor; paper states no interaction; unreliable
T1 construct: gene ALB; commercial serum albumin, biotinylated, control protein
T1 sequence (P02769 25-607): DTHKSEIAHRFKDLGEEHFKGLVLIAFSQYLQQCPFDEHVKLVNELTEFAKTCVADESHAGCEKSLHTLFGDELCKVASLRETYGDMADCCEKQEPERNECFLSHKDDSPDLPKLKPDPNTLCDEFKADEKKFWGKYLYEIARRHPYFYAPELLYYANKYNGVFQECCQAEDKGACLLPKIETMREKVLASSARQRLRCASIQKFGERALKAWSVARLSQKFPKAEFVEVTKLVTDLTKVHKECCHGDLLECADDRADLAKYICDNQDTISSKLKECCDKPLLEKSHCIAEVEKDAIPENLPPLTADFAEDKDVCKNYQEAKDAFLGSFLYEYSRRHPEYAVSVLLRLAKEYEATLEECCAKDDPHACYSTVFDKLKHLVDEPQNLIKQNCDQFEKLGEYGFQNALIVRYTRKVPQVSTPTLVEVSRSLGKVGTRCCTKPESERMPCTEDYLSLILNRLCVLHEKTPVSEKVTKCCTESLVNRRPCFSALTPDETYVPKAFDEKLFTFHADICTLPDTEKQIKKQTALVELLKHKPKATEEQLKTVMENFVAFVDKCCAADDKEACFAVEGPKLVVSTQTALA

[1] = target: T2, NTCP (recombinant His-tagged human NTCP; hNTCP) (Homo sapiens, UniProt Q14973); test: inhibition of FITC-preS1-myr binding to Huh7D-hNTCP cells, high-content imaging; assay type: cell-based; design: gene SLC10A1
T2 sequence (Q14973 1-349): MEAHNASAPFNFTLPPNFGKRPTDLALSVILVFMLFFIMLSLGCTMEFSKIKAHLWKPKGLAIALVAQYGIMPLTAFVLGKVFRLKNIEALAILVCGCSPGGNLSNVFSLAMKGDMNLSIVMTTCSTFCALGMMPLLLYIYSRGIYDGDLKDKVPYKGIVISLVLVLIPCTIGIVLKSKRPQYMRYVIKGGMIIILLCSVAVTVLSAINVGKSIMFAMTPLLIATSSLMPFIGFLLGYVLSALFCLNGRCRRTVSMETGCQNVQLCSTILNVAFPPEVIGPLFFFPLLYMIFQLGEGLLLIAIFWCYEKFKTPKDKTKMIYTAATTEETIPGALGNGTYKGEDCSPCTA
Source text: inhibition of FITC-preS1-myr binding to Huh7D-hNTCP cells, high-content imaging on NTCP (recombinant His-tagged human NTCP; hNTCP) | inhibited the binding of FITC-preS1 to cells in a concentration-dependent manner with an IC50

[2] = target: T2, NTCP (recombinant His-tagged human NTCP; hNTCP); test: biolayer interferometry (Octet RED); assay type: binding; design: gene SLC10A1; full-length from pEnter-hNTCP, His-tag, expressed in and purified from HEK293T, biotinylated for Octet

Cc1cc(-c2ccc(/N=N/c3ccc4c(S(=O)(=O)O)cc(S(=O)(=O)O)c(N)c4c3O)c(C)c2)ccc1/N=N/c1ccc2c(S(=O)(=O)O)cc(S(=O)(=O)O)c(N)c2c1O [Evans blue]
KD (BSA): 468 µM
IC50 [1]: ~5 µM
Kd [2]: 0.0882 µM
